Results reported in US11160788B2, “Caspase-1 inhibition and uses thereof for prevention and treatment of neurological conditions” (priority 2016, dated 2021).
“Also recorded” adds a separate entry of the source.

Tests used:
[1] = target: T1, mouse recombinant Casp1 (Mus musculus, UniProt P29452); assay: Caspase inhibition IC50, mouse recombinant Casp1; type: biochemical; settings: read-out: IC50 against mouse Casp1
T1 sequence (P29452 119-296 limits assumed): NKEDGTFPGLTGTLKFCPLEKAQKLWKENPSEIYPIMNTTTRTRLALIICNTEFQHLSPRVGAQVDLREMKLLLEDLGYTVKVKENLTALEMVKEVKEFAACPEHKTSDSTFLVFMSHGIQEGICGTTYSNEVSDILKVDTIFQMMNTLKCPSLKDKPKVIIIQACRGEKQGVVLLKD
T1 sequence (P29452 315-402 limits assumed): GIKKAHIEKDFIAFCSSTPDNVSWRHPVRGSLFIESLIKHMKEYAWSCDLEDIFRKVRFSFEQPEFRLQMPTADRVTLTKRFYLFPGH
Description: (§1) FIG. 14: Selectivity and blood brain permeability of VX-765 and VRT-043198. (a-b) IC50 of VX-765 (a) and VRT-043198 (b) against human Casp1-10. (c-d) IC50 of VX-765 (c) and VRT-043198 (d) against mouse Casp1 and Casp11. (e) Blood brain barrier permeability and presence of VX-765 and VRT-043198 in 3 wild type and 4 J20 mice brain cortex and hippocampus and in plasma. Ratios of brain levels to plasma levels are calculated.

[2] = test system: human Casp2 to 10; assay: Selectivity against human Casp2 to 10; type: biochemical; settings: recombinant caspases
Description: as §1

[3] = test system: J20 mice; assay: Open field hyperactivity, treatment of symptomatic J20 mice; type: in vivo, mouse; settings: for hyperactivity in open field: Treatment 2; for hyperactivity, distance travelled in open field: 50 mg/kg IP
From the text: FIG. 8: VX-765 treatment restores cognitive function in J20 mice. (a) Experimental paradigm. Intraperitoneal vehicle-injected wild type (WT+Vehicle; n=13) and J20 mice (J20+Vehicle: n=9), and VX-765-injected J20 mice (J20+VX-765: n=9) mice were behaviourally assessed at 5 different time-points: baseline before treatment (baseline untreated J20 were grouped together; n=18), after 3 IP injections/wk of VX-765 or vehicle (Treatment 1), after 6 additional injections over 2 weeks (Treatment 2), after 4-week Washout period, and after an additional 3 injections in one week (Treatment 3). Mice were sacrificed at 8 months of age after Treatment 3 (b) NOR Discrimination index (Treatment main effect, F(2,20)=85.8, p<0.0001; Time main effect, F(4,80)=4.188, p=0.0039; Treatment×Time interaction, F(8,80)=[…], two-way repeated-measures ANOVA, Dunnett's post-hoc compared to J20+Vehicle). (c) Distance traveled during Open Field task. Data analyzed by repeated measures two-way ANOVA (Treatment main effect, F(2,19)=11.47, p=0.0005; Treatment×Time interaction, F(8,76)=5.69, p<0.0001, two-way repeated-measures ANOVA, Dunnett's post-hoc compared to J20+Vehicle). (d-i) Barnes maze analysis. Learning acquisition (d,g), probe test primary latency and errors (e,h), and target hole preference (f,i); # of pokes of each hole labelled +1 to +9 to the right or −1 to −9 to the left of the target hole during the probe) after Treatment 2 (d-f) and Washout (g-i). Probe tests were analyzed (Treatment 2 primary latency, F(2,52)=5.879, p=0.0050; Treatment 2 primary errors, F(2,52)=9.998, p=0.0002; Washout primary latency, F(2,22)=4.076, p=0.0312; Washout primary errors, F(2,22)=10.84, p=0.0005, ANOVA, Tukey's post-hoc). * p<0.05, ***p<0.001, ****p<0.0001.
Anxiety and hyperactivity are monitored in an open-field paradigm, episodic memory with the NOR, spatial memory with the Barnes maze, and short or long term working memory with the Y maze before and after treatments. Repeated measures are acceptable for the NOR, Barnes and Y maze^2-4. […]

[4] = test system: CNS primary human neurons (HPN); assay: MTT assay in primary human neurons; type: cell-based; settings: 25, 50, 100, or 200 μM for 72 hours
Description: (§2) FIG. 13: VX-765 protects CNS primary human neurons (HPN) against APP- or serum deprivation-mediated neuritic beading. (a) MTT assay with increasing dose of VX-765. (b) Fluorescent micrographs showing homogeneous distribution of EGFP in normal neurons and neuritic beading in APP-transfected neurons. (c) Percentage beading in APP-transfected or serum-deprived neurons treated 1 h before and continuously with stressor (Pre-treatment) or 48 h after stressor (post-beading treatment) with 25 or 50 μM VX-765 or with 5 μM Z-YVAD-fmk Casp1 peptide inhibitor. […] (d-e) HPN secreted or cellular Aβ42/total Aβ38+40+42 (d) (F(3,4)=12.73, p=0.0163, ANOVA, Dunnett's post-hoc compared to Serum+DMSO, *p<0.05), and (e) levels of secreted II-1β, IFN-γ, TNF-α, and II-6 from untreated (+S), serum deprived (−S), or serum-deprived human neurons treated with 25 or 50 μM VX-765.
To determine if VX-765 can protect human neurons against neurodegeneration, VX-765 was assessed in primary human fetal CNS neuron cultures. Treatment of HPN with 25, 50, 100, or 200 μM VX-765 for 72 hours was not toxic (FIG. 13a). […] HPN were pre-treated with VX-765 for 1 h before APP transfection and treatment continued thereafter. […] To assess if neuritic beading was reversible, VX-765 was administered 48 hours after APP^WT transfection or serum deprivation.

[5] = test system: APP^WT-transfected human primary neurons; assay: Neuritic beading in APPWT-transfected human primary neurons; type: cell-based
Description: as §2
EGFP-labeled human primary neurons were either APP^WT transfected or serum deprived. Two treatment strategies were employed to determine VX-765's effects on neuronal degeneration: our Pre-Treatment strategy looked at whether VX-765 could block neuronal degeneration when administered 1 hr prior to APP^WT transfection or serum deprivation, while our Reversal Treatment strategy looked at whether VX-765 could reverse degenerative effects when administered 48 hrs after APP^WT transfection or serum deprivation. Neurons displaying beaded morphology were counted with live imaging and measured as a percentage of the total number of eGFP+ neurons from 24-72 hrs after treatment. The irreversible caspase-1 inhibitor YVAD-fmk was used as positive control in our experiments. Results were obtained from averaging counts for at least 100 eGFP+ neurons per experiment in three independent neuron preparations.

[6] = test system: serum-deprived human neurons; assay: Aβ42/total Aβ and cytokine levels of serum-deprived human neurons; type: cell-based
Description: as §2

CCO[C@@H]1OC(=O)C[C@@H]1NC(=O)[C@@H]1CCCN1C(=O)[C@@H](NC(=O)c1ccc(N)c(Cl)c1)C(C)(C)C [VX-765, (S)-1-((S)-2-{[1-(4-amino-3-chloro-phenyl)-methanoyl]-amino}-3,3-dimethyl-butanoyl)-pyrrolidine-2-carboxylic acid ((2R,3S)-2-ethoxy-5-oxo-tetrahydro-furan-3-yl)-amide]
IC50 [1]: 52.1 nM
inhibition of human Casp1 relative to human Casp2 to 10 [2]: potently and specifically inhibited
hyperactivity in open field ([3]; 10 mg/kg): non-significant improvement at T2 with 25, but not 10
hyperactivity in open field ([3]; 25 mg/kg): non-significant improvement
hyperactivity, distance travelled in open field ([3]; Treatment 2 (3 weeks of treatment)): attenuated only after 3 weeks of treatment; also recorded: attenuated by VX-765 only after T2
hyperactivity, distance travelled in open field ([3]; Treatment 3): significantly reduced after T3
hyperactivity, distance travelled in open field ([3]; after washout): reappeared after WO
toxicity (MTT assay) [4]: not toxic
neuritic beading ([5]; pre-treatment 1 h before and continued, VX-765 25 and 50 μM, Z-YVAD-fmk 5 μM, 48 and 72 h): prevented neuritic beading
reduction in neuritic beading ([5]; pre-treatment 1 hr prior, 48 hrs and 72 hrs post transfection, vs DMSO): 40%
secreted and cellular Aβ42/total Aβ levels ([6]; 25 μM): reduced secreted, but not cellular
secreted and cellular Aβ42/total Aβ levels ([6]; 50 μM): reduced secreted and cellular
levels of II-1β, IFN-γ, TNF-α, and II-6 ([6]; 25 and 50 μM, trend, not statistically significant): reduced at both concentrations
